Patent US9012457B2, “2-carboxamide-4-piperazinyl-benzofuran derivative” (AstraZeneca AB, priority 2010, dated 2015)

How the values were obtained:
[1] = molecular target: T1, 5-HT1B receptor (Homo sapiens, UniProt P28222); test: saturation binding studies, 5-HT1B receptor; details: read-out: Kd of radioligand (used in calculation of Ki values)
Procedure: Frozen membrane preparations were thawed, homogenized with an Ultra-Turrax and mixed with SPA beads (YSI coated WGA, GE Healthcare/Amersham, Buckinghamshire, UK) in assay buffer containing 50 mM Tris-Base, 4 mM MgCl2, 4 mM CaCl2 (only 5-HT1B), 1 mM EDTA, and adjusted to pH 7.4 with HCl. The beads/membrane solution, final concentration 100 pM receptors for 5-HT1A, 300 pM receptors for 5-HT1B and 0.5 mg SPA beads/well, was pre-incubated in room temperature with stirring for 30-60 min. […] Five (log interval, 10 μM to 1 nM, final concentration) or ten serial dilutions (½-log interval, 0.1 μM to 0.0032 nM, final concentration) of compounds were prepared in DMSO from 10 mM stock solutions. The binding assays were performed in 384-well plates in a final volume of 90 μL/well with the following additions: 9 μL binding buffer; 1 μL compound/DMSO/nonspecific; 20 μL radioligand; and 60 μL beads/membrane mixture. Non-specific binding was defined by using 10 μM WAY100635 for 5-HT1A and 10 μM Methiothepin for 5-HT1B. The assay plates were incubated for 4 hours where after the plates are counted in a Wallac 1450 Microbeta Trilux counter (PerkinElmer LifeScience, US) or similar. Data from the experiments were analyzed using a four parameter logistic equation as follows: Y=Bottom+(Top−Bottom)/1+10^(Log EC50-X)nH.

[2] = molecular target: T1, 5-HT1B receptor; test: 5-HT1B receptor competition binding assay (SPA, [3H]-GR125743)
Procedure: (§1) These assays were be used with some modifications:
(§2) For the binding assay stably transfected chinese hamster ovary (CHO) cell lines expressing 5-HT1A receptors or 5-HT1B receptors were harvested by centrifugation at 300×g for 10 min and resuspended in 10 mM Tris-HCl, 5 mM EDTA at pH 7.4. The cells were pooled, recentrifuged and resuspended before homogenisation using a Dounce homogeniser (“type B”). Cell membranes were centrifuged at 48 000×g for 10 min and then resuspended in harvesting buffer using an Ultra-Turrax T8 (IKA Labortechnik, Germany), aliquots were stored frozen in −70° C.
(§3) Frozen membrane preparations were thawed, homogenized with an Ultra-Turrax and mixed with SPA beads (YSI coated WGA, GE Healthcare/Amersham, Buckinghamshire, UK) in assay buffer containing 50 mM Tris-Base, 4 mM MgCl2, 4 mM CaCl2 (only 5-HT1B), 1 mM EDTA, and adjusted to pH 7.4 with HCl. The beads/membrane solution, final concentration 100 pM receptors for 5-HT1A, 300 pM receptors for 5-HT1B and 0.5 mg SPA beads/well, was pre-incubated in room temperature with stirring for 30-60 min. […] The assay plates were incubated for 4 hours where after the plates are counted in a Wallac 1450 Microbeta Trilux counter (PerkinElmer LifeScience, US) or similar. Data from the experiments were analyzed using a four parameter logistic equation as follows: Y=Bottom+(Top−Bottom)/1+10^(Log EC50-X)nH.

[3] = molecular target: T2, 5-HT1A receptors (Homo sapiens, UniProt P08908); test: 5-HT1A receptor competition binding assay (SPA, [3H]-8-OH-DPAT)
T2 sequence (P08908 1-422): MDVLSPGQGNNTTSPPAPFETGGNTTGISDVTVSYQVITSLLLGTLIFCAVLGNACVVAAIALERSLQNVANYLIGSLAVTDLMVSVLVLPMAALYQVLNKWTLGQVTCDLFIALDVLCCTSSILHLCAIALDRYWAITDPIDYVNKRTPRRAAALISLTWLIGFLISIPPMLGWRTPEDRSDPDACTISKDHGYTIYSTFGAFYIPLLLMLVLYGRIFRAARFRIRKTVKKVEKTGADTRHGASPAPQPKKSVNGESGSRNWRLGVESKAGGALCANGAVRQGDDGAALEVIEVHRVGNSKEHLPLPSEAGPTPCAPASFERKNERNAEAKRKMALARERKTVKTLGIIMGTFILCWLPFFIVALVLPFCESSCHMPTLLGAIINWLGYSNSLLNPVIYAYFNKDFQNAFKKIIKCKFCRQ
Procedure: as §1, §2, §3

T1 sequence (P28222 whole entry): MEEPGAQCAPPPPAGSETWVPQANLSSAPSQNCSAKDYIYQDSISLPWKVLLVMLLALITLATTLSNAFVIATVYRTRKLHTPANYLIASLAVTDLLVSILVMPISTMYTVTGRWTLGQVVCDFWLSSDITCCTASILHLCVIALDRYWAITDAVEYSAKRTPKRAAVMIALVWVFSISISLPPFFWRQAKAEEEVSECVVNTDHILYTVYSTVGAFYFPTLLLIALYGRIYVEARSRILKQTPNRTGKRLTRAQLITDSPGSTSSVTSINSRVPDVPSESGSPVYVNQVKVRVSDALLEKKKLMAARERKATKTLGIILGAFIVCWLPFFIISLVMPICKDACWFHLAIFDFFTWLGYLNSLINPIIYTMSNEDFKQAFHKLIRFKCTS

Row | Compound | Kd [1] | Ki [2] | Ki [3]
1 | COc1ccc(NC(=O)c2ccc(-c3ccncc3)c(C)c2)cc1N1CCN(C)CC1 [[^3H]-GR125743] | 0.87 nM | – | –
2 | CNC(=O)c1cc2c(N3CCN(CCc4cccc5c4CCC(=O)N5C)CC3)cccc2o1 [compound of formula (I), N-Methyl-4-[4-[2-(1-methyl-2-oxo-3,4-dihydroquinolin-5-yl)ethyl]piperazin-1-yl]benzofuran-2-carboxamide] | – | 0.65 nM | 0.07 nM
